# Measured values from patent US4839387A, “Derivative of thiazolidine-4-carboxylic acid, its preparation and pharmaceutical compositions containing it” (Poli Industria Chimica S.P.A., priority 1987, dated 1989).
# Non-standard residues stand in square brackets, D forms with d. Residues, ends and D or L forms follow the SMILES beside them. pGlu = O=C1CC[C@@H](C(=O)O)N1; Thz = O=C(O)[C@@H]1CSCN1
# Columns and labels:
# [1] = tested on: T-lymphocyte response to concanavaline A; assay: Test of blastization with ConA (3H-thymidine incorporation) after in vivo treatment; design: species or system rat; conditions: for 3H-thymidine cpm/well: ConA 2.5 μg/ml; for 3H-thymidine increase %: versus untreated
# Procedure: (§1) For this purpose, male adult rats (5-6 months old) were used as animal model with normal immuno-competent system, and old rats (17-18 months) as a paraphysiological immunodeficiency model.
# (§2) The PGTCA treatment has been carried out i.p. at the dose of 1, 10 or 50 mg/kg twice a day for 4 weeks. The used immunological tests were the delayed-type hypersensitivity induced by dinitrochlorobenzene (DNCB) and the T-lymphocyte response to concanavaline A (ConA).
# After 4 weeks of PGTCA treatment at the doses of 1,10 and 50 mg/kg, the animals were sacrificed and the spleen was removed in sterile conditions. The isolation of lymphocytes was obtained by an isolimph gradient. The lymphocytes were incubated in micro-walls, at the concentration of 1×10^6 cells/ml, in the presence of ConA (2.5 μg/ml), for 48 hours. The mitogen activity was evaluated by incorporation of ^3 H-thymidine for 16 hours.
# Male Wistar rats [2] = assay: Paracetamol intoxication in the rat, test after single i.p. administration; type: in vivo; conditions: for Death rate % / % distribution of liver impairment degrees: degree 0 / % distribution of liver impairment degrees: degree 1 / % distribution of liver impairment degrees: degree 2 / % distribution of liver impairment degrees: degree 3: single administration; for Death rate %: 48 hours after paracetamol 5000 mg/kg oral; for % distribution of liver impairment degrees: degree 0: degree 0 = normal histologic examination; for % distribution of liver impairment degrees: degree 1: degree I = centrolobular necrosis less than 25% of the lobule; for % distribution of liver impairment degrees: degree 2: degree II = extended centrolobular necrosis; for % distribution of liver impairment degrees: degree 3: degree III = massive necrosis
# Description: (§3) Male Wistar rats, mean weight of 150±10 g were used, which, after suitable housing, were subjected to the test:
# (a) Test after single i.p. administration
# The animals were divided in 7 groups, comprising 20 animals each, according to the following scheme:
# II group: PGTCA 4.1 μmoles/kg i.p.
# III group: PGTCA 41 μmoles/kg i.p.
# IV group: PGTCA 205 μmoles/kg i.p.
# V group: PGA 4.1 μmoles/kg +TCA 4.1 μmoles/kg
# VI group: PGA 41 μmoles/kg +TCA 41 μmoles/kg
# VII group: PGA 205 umoles/kg +TCA 205 μmoles/kg.
# The animals of each group, fasting since 12 hours, were treated with paracetamol at the dose of 5000 mg/kg by the oral route. The different pharmacological treatments were carried out contemporaneously with the paracetamol administration. After 48 hours from treatment, the death-rate was assessed in the various experimental groups. The liver was taken from the surviving animals, sacrificed by decapitation, and from the dead animals and an histopathologic examination was carried out.
# The degree of liver impairment has been evaluated as: degree O: normal histologic examination degree I: centrolobular necrosis extended to less than 25% of the lobule degree II: extended centrolobular necrosis, with lesions bridging adjacent centrolobular areas degree III: massive necrosis.
# (§4) In order to evaluate the lesion degree, 6 different sections were taken from each organ.
# Swiss male mice = assay: Effects on the consequences of exposure to ionizing radiation; type: in vivo, mouse; conditions: for Death-rate % 10 gg: 10 days after 700 r of x rays; for Death-rate % 15 gg: 15 days after 700 r of x rays
# Procedure: Swiss male mice weighing 30±5 g, divided in 7 groups of 20 animals each, were used according to the above reported schedule.
# The pharmacological treatments were carried out for 15 days before the irradiation and prosecuted up to the end of the experiment. The control animals received the vehicle alone.
# At the 15th day, all the animals were irradiated (Philip Metalix® apparatus, 180 KV, 15 mA, with Cu filter 0.5 mm +AI mm) with the administration of 700 r of x rays.
# All the animals were checked daily, for 15 days after irradiation. The radio-protection degree was calculated as survival % at 10 and 15 days.
# old rat = assay: Neurocerebral performances in the old rat; type: in vivo; conditions: 10 mg/kg and even more at 50 mg/kg
# [3] = tested on: T cells forming rosettes with sheep red blood cells; assay: T-cells forming rosette with sheep red blood cells; type: in vivo, mouse; conditions: for No. rosette/10^6 spleen cells Var. %: versus controls
# Procedure: In the mouse, a cytotoxic-kind of hypersensivity reaction, evaluated in the test of T cells forming rosettes with sheep red blood cells, was used (S.D. Wilson Immunology, 1971, 21, 233). […]
# CD-I male mice weighing about 25 g are treated with PGTCA for 8 days. After 4 days from the start of the treatment the animals were immunized with 5×10^8 sheep red blood cells in 0.2 ml of PBS i.p. The rosette test was carried out 6 days after the immunization. The mice were killed and the spleen was removed and placed in ice cold Hank solution, triturated, homogenized and gauze filtered.
# 6×10^7 /ml of spleen cells +100 /μl of red blood cell suspension 3×10^8 /μul were mixed in 0.8 ml of Hank and stirred for 1 min.
# The samples were incubated for 24 h at 4° C. without stirring and then, after stirring, the number of rosette forming cells/ml was determined by the Burker apparatus.
# male rat = assay: Sexual behaviour of the male rat; type: in vivo; conditions: latencies and frequences of sexual acts
# Male Wistar rats [4] = assay: Paracetamol intoxication in the rat, test after repeated i.p. administration; type: in vivo; conditions: for Death rate %: repeated administration (daily for 8 days and on), 48 hours after paracetamol 5000 mg/kg per os; for % distribution of liver impairment degrees: degree 0 / % distribution of liver impairment degrees: degree 1 / % distribution of liver impairment degrees: degree 2 / % distribution of liver impairment degrees: degree 3: repeated administration; for % distribution of liver impairment degrees: degree 0: degree 0 = normal histologic examination; for % distribution of liver impairment degrees: degree 1: degree I = centrolobular necrosis less than 25% of the lobule; for % distribution of liver impairment degrees: degree 2: degree II = extended centrolobular necrosis; for % distribution of liver impairment degrees: degree 3: degree III = massive necrosis
# Description: as §3
# The degree of liver impairment has been evaluated as: degree O: normal histologic examination […]
# degree II: extended centrolobular necrosis, with lesions bridging adjacent centrolobular areas degree III: massive necrosis.
# as §4
# (b) Test after repeated i.p. administration
# The same treatment schedule as in (a) was used.
# The animals of groups II-VII were treated daily for 8 days. At the 8th day, contemporaneously to the various considered pharmacological treatments, the animals of the 7 groups (fasting since 12 hours) were administered with paracetamol (5000 mg/kg per os).
# After 48 hours from the paracetamol administration, the surviving animals were examined and the liver was subjected to the histopathologic examination.
# male rats = assay: Delayed-type hypersensitivity induced by dinitrochlorobenzene (DNCB); type: in vivo, rat
# Procedure: as §1, §2
# After 4 weeks of PGTCA pre-treatment (or vehicle), 0.02 ml of DNCB (solubilized in acetone at the concentration of 200 mg/ml) was applied to each animal (5 rats per group) on the cutis of the back, on an area of about 1 cm^2. The subsequent inflammatory reaction was evaluated by measuring the diameter of the reddish area by means of a thickness gauge from day 1 to day 7.
# During this period the animals were constantly treated.
# [5] = at the highest and at the intermediate dose
# [6] = PGTCA 4.1 microm/kg ip from 15 days before irradiation
# [7] = PGTCA 41 microm/kg ip from 15 days before irradiation
# [8] = PGTCA 205 microm/kg ip from 15 days before irradiation
# [9] = Mice not sensitized with red blood cells, 100 mg/kg b.i.d. i.p. for 8 days
structure (smiles),measurement,setting,value
"O=C1CC[C@@H](C(=O)N2CSC[C@H]2C(=O)O)N1 [PGTCA, 3-L-pyroglutamyl-Lthiazolidine-4-carboxylic acid] ([pGlu]-[Thz]-OH)",3H-thymidine cpm/well,"[1]; Adult rats (5-6 months), 1 mg/kg i.p. twice a day for 4 weeks",31806 ± 970 cpm/well
same,3H-thymidine increase %,"[1]; Adult rats (5-6 months), 1 mg/kg",-2.1%
same,3H-thymidine cpm/well,"[1]; Adult rats (5-6 months), 10 mg/kg i.p. twice a day for 4 weeks",34165 ± 540 cpm/well
same,3H-thymidine increase %,"[1]; Adult rats (5-6 months), 10 mg/kg",+5.1%
same,3H-thymidine cpm/well,"[1]; Adult rats (5-6 months), 50 mg/kg i.p. twice a day for 4 weeks",35785 ± 240 cpm/well
same,3H-thymidine increase %,"[1]; Adult rats (5-6 months), 50 mg/kg",+10.1%
same,3H-thymidine cpm/well,"[1]; Old rats (17-18 months), 1 mg/kg i.p. twice a day for 4 weeks",23553 ± 923 cpm/well
same,3H-thymidine increase %,"[1]; Old rats (17-18 months), 1 mg/kg",+1.6%
same,3H-thymidine cpm/well,"[1]; Old rats (17-18 months), 10 mg/kg i.p. twice a day for 4 weeks",26012 ± 316 cpm/well
same,3H-thymidine increase %,"[1]; Old rats (17-18 months), 10 mg/kg",+12.3%
same,3H-thymidine cpm/well,"[1]; Old rats (17-18 months), 50 mg/kg i.p. twice a day for 4 weeks",27540 ± 439 cpm/well
same,3H-thymidine increase %,"[1]; Old rats (17-18 months), 50 mg/kg",+18.9%
same,liver impairment by an high dose of paracetamol,"Male Wistar rats [2]; acute treatment, 205 μmoles/kg i.p. and 41 μmoles/kg i.p.",significant decrease
same,death-rate by paracetamol,Male Wistar rats [2]; [5],reduces the death-rate
same,Death rate %,Male Wistar rats [2]; PGTCA 4.1 microm/kg ip,85%
same,% distribution of liver impairment degrees: degree 0,Male Wistar rats [2]; PGTCA 4.1 microm/kg ip,0%
same,% distribution of liver impairment degrees: degree 1,Male Wistar rats [2]; PGTCA 4.1 microm/kg ip,0%
same,% distribution of liver impairment degrees: degree 2,Male Wistar rats [2]; PGTCA 4.1 microm/kg ip,10%
same,% distribution of liver impairment degrees: degree 3,Male Wistar rats [2]; PGTCA 4.1 microm/kg ip,90%
same,Death rate %,Male Wistar rats [2]; PGTCA 41 microm/kg ip,75%
same,% distribution of liver impairment degrees: degree 0,Male Wistar rats [2]; PGTCA 41 microm/kg ip,0%
same,% distribution of liver impairment degrees: degree 1,Male Wistar rats [2]; PGTCA 41 microm/kg ip,5%
same,% distribution of liver impairment degrees: degree 2,Male Wistar rats [2]; PGTCA 41 microm/kg ip,20%
same,% distribution of liver impairment degrees: degree 3,Male Wistar rats [2]; PGTCA 41 microm/kg ip,75%
same,Death rate %,Male Wistar rats [2]; PGTCA 205 microm/kg ip,60%
same,% distribution of liver impairment degrees: degree 0,Male Wistar rats [2]; PGTCA 205 microm/kg ip,5%
same,% distribution of liver impairment degrees: degree 1,Male Wistar rats [2]; PGTCA 205 microm/kg ip,15%
same,% distribution of liver impairment degrees: degree 2,Male Wistar rats [2]; PGTCA 205 microm/kg ip,15%
same,% distribution of liver impairment degrees: degree 3,Male Wistar rats [2]; PGTCA 205 microm/kg ip,65%
same,Death-rate % 10 gg,Swiss male mice; [6],20%
same,Death-rate % 10 gg,Swiss male mice; [7],15%
same,Death-rate % 10 gg,Swiss male mice; [8],10%
same,Death-rate % 15 gg,Swiss male mice; [6],45%
same,Death-rate % 15 gg,Swiss male mice; [7],20%
same,Death-rate % 15 gg,Swiss male mice; [8],15%
same,radioprotective activity,Swiss male mice; [5],remarkable radioprotective activity
same,improving the neurocerebral performances,old rat,active
same,No. rosette/10^6 spleen cells m ± E.S.,[3]; [9],790 ± 170 rosette/10^6 spleen cells
same,No. rosette/10^6 spleen cells Var. %,[3]; [9],-12%
same,No. rosette/10^6 spleen cells Var. %,"[3]; Mice sensitized with red blood cells, 100 mg/kg b.i.d. i.p. for 8 days",+41%
same,rosette number in comparison with the control,[3]; not sensitized animals,no significant change
same,rosette number in comparison with the control,[3]; sensitized animals,significant increase
same,sexual behaviour,male rat,favourable influence
same,Death rate %,Male Wistar rats [4]; PGTCA 4.1 microm/kg ip,85%
same,Death rate %,Male Wistar rats [4]; PGTCA 41 microm/kg ip,70%
same,Death rate %,Male Wistar rats [4]; PGTCA 205 microm/kg ip,50%
same,% distribution of liver impairment degrees: degree 0,Male Wistar rats [4]; PGTCA 4.1 microm/kg ip,0%
same,% distribution of liver impairment degrees: degree 1,Male Wistar rats [4]; PGTCA 4.1 microm/kg ip,0%
same,% distribution of liver impairment degrees: degree 2,Male Wistar rats [4]; PGTCA 4.1 microm/kg ip,10%
same,% distribution of liver impairment degrees: degree 3,Male Wistar rats [4]; PGTCA 4.1 microm/kg ip,90%
same,% distribution of liver impairment degrees: degree 0,Male Wistar rats [4]; PGTCA 41 microm/kg ip,0%
same,% distribution of liver impairment degrees: degree 1,Male Wistar rats [4]; PGTCA 41 microm/kg ip,0%
same,% distribution of liver impairment degrees: degree 2,Male Wistar rats [4]; PGTCA 41 microm/kg ip,35%
same,% distribution of liver impairment degrees: degree 3,Male Wistar rats [4]; PGTCA 41 microm/kg ip,65%
same,% distribution of liver impairment degrees: degree 0,Male Wistar rats [4]; PGTCA 205 microm/kg ip,5%
same,% distribution of liver impairment degrees: degree 1,Male Wistar rats [4]; PGTCA 205 microm/kg ip,15%
same,% distribution of liver impairment degrees: degree 2,Male Wistar rats [4]; PGTCA 205 microm/kg ip,25%
same,% distribution of liver impairment degrees: degree 3,Male Wistar rats [4]; PGTCA 205 microm/kg ip,55%
same,"response to DNCB, evaluated as inflammation area","male rats; old animals, already at the dose of 10 mg/kg",maximum enhancing increase
same,"response to DNCB, evaluated as inflammation area","male rats; young animals, only at the dose of 50 mg/kg",significant increase
